Assay results as given in patent US10590383B2, “Methods for differentiating pluripotent cells” (FUJIFILM Cellular Dynamics, Inc., priority 2016, dated 2020).
Entries after “also recorded” stand apart in the source; their conditions may differ.

Experiments:
[1] = tested on: human induced pluripotent stem cell (iPS) cell lines; test: mDA progenitor patterning on process day 17 (FoxA2 by flow cytometry, FoxA2/Lmx1 co-expression by ICC); type: cell-based; settings: for percentage of mDA progenitors induced (FoxA2 / FoxA2+Lmx1 cells) / use in mono-SMAD inhibition methods to produce midbrain dopaminergic neurons from iPS cells: single SMAD inhibitor; for percentage of mDA progenitors induced (FoxA2 / FoxA2+Lmx1 cells): alternate patterning conditions, multiple iPSC lines, process day 17
Protocol: Midbrain neuronal differentiation of human induced pluripotent stem cell (iPS) cell lines expanded on VTN-TN in Essential 8 medium was performed with small molecule and growth factor induction using a variety of differentiation media compositions and schedules as detailed in Tables 1-5. Generally, the iPS cells were cultured in D1 DA Neuron Induction Medium on Day 1, D2 Neuron Induction Medium on Day 2, and D3-D4 DA Induction Medium on Day 3 and 4. On Day 5, the cells were dissociated with TrypLE for 15 minutes and collected in DA Quench Medium before transferring the cells to a spinner flask suspension culture to form aggregates in D5 DA Neuron Aggregate Formation Medium.
On Day 6, the aggregates were settled, about 66% of the medium was removed, and the aggregates were fed DA Neuron Induction Medium. On Days 7-16, the aggregates were fed daily with DA Neuron Aggregate Maintenance Medium, and the medium was changed on Day 11 through 16. On Day 17, aggregates were dissociated to a single-cell suspension with TrypLE and plated onto Matrigel in D17 DA Neuron Aggregate Plating Medium. On Days 18, 20, 22 the medium was replaced with DopaNeuron Maturation Medium. On Day 24, the cells were dissociated using Accutase and plated in DA Neuron Maturation Plating Medium. The next day, the medium was replaced with DopaNeuron Maturation Medium.
The iCell DopaNeurons process was optimized with most progenitor patterning factors added starting on day 1. This includes factors for neuralization (dual-SMADi), sonic hedgehog signaling (Shh, PMN), and Wnt signaling (CHIR). […] A large number of optimization experiments were carried out across several iPSC lines to define conditions for efficient mono-SMADi mDA progenitor patterning, varying the timing and dose of all patterning factors. […] In the alternate (ALT) method, the SHH/Purmophamine addition was moved from Day 1 to Day 2. The changes utilized in this improvement included: (i) staggering the addition of the Wnt agonist (CHIR) to day 2 or day 3, (ii) re-optimizing the CHIR concentration, as this is dependent on the time it is first added, and (iii) moving the window where PD03 is added, as the optimal window depends on when CHIR is added. The end result was a narrow set of conditions that led to highly-efficient mDA progenitor formation in multiple iPS cell lines. Approximately half of the iPSC lines tested were able to generate mDA progenitors using mono-SMADi conditions.
FoxA2/Lmx1 coexpression is the most accurate marker for mDA progenitor cells. The use of alternate patterning conditions allows for efficient mDA progenitor patterning in the context of mono-SMAD inhibition (“Mono/Alternate”), whereas the standard patterning conditions have poor mDA progenitor patterning in the context of mono-SMAD inhibition (“Mono/Standard”). Control differentiations using dual-SMADi and standard patterning conditions (“Dual/Standard”) are shown for comparison.
Once an alternate patterning condition was identified that allowed for successful differentiation using mono-SMAD inhibition (Condition 1, i.e., Table 4: Alternate, LDN at 200 nM), the method was refined using a matrix of conditions, including the concentration of CHIR, and the treatment windows for Shh signaling, Wnt signaling, and MEK inhibition. […] Tyrosine hydroxylase (TH) expression is low in immature mDA neurons.
Different inhibitors were tested for function in mono-SMADi methods, as follows. The iCell DopaNeurons process induces neuralization using LDN-193189, an inhibitor of BMP signaling (inhibits ALK 1/2/3/6, blocks SMAD 1/5/8), and SB-431542, an inhibitor of TGF-b signaling (inhibits ALK 4/5/7, blocks SMAD 2/3). Together, this is referred to as “dual SMAD inhibition”, or “dual SMADi.” To define optimal conditions for neuralization using only a single SMAD inhibitor in the mDA process, various analogs of LDN-193189 and SB-431542 were screened across multiple iPS cell lines using the alternate patterning conditions described above. […]

iPSC-derived mDA neurons = test: Marker characterization at process completion, day 37 (MAP2/nestin, FoxA2, TH); type: cell-based, human; settings: 2 μM LDN versus 200 nM, Condition 7, iPSC line K
Source text: On Day 31, the cells were dissociated with Accutase and re-plated onto poly-L-ornithine (PLO)/Laminin-coated flasks in DA Neuron Maturation Plating Medium. Next, on Days 32, 34, and 36, the cells were fed DopaNeuron Maturation Medium. On Day 37 or 38, the cells were again dissociated with Accutase and subjected to analysis or cryopreserved for later use.
Three iPSC lines (C, K, and H) are shown as examples of successful differentiations taken to process completion (day 37) (FIG. 5). The iPSC lines C, K, and H are iPSC lines (21526.101, 21534.101, and 21531.101, respectively). Data was obtained using the approach in Table 4 for Alternate LDN and Table 1 for Standard Dual control. Differentiation of the H line using dual-SMADi and the optimized standard patterning is shown for comparison. In each case, a high level of neuron purity was observed (>90% MAP2+/nestin−), and essentially all neurons co-express FoxA2. The inventors have observed that the vast majority of MAP2+/FoxA2+ cells at this stage also express Lmx1, and are therefore mDA neurons. The DA neuron phenotype was confirmed by the expression of tyrosine hydroxylase (TH) in the majority of neurons, a marker of more mature DA neurons. […]

[2] = molecular target: TGF-β type 1 (ALK4/5/7) receptor signaling; settings: read-out: IC50 for inhibition of TGF-β type 1 (ALK4/5/7) receptor signaling; cited from earlier work
[3] = tested on: dividing cells / post-mitotic mDA neurons; test: In-process purification of mDA neurons with mitomycin C (neuron purity MAP2+/nestin-, day 37); type: cell-based, human; settings: chemo drug selection, no selection gave 44%
Source text: In-Process Purification of mDA Neurons: Even with efficient mDA progenitor patterning, there is a population of cells that continues to proliferate even after the maturing mDA neurons leave the cell cycle (approximately day 25). […] Intermediate doses given for intermediate times could also be used to achieve a similar effect.

Structure (SMILES) | percentage of mDA progenitors induced (FoxA2 / FoxA2+Lmx1 cells) [1] | use in mono-SMAD inhibition methods to produce midbrain dopaminergic neurons from iPS cells [1] | other results
Cc1cccc(-c2nn(C(=S)Nc3ccccc3)cc2-c2ccnc3ccccc23)n1 [A-83-01] | did not outperform LDN | – | –
CC(C)Oc1ccc(-c2cnc3c(-c4ccnc5ccccc45)cnn3c2)cc1 [DMH-1] | – | successfully used | –
c1ccc2c(-c3cnn4cc(-c5ccc(N6CCNCC6)cc5)cnc34)ccnc2c1 [LDN-193189] | best overall at inducing the highest percentage of mDA progenitors; also recorded: most efficient at neutralizing mDA progenitors across multiple iPSC lines | successfully used | percentage of floor plate-derived neurons (FoxA2+) on process day 37 (iPSC-derived mDA neurons): higher percentage of floor plate-derived neurons (FoxA2+); IC50 [2]: > 500 nM; FoxA2 and Lmx1 expression levels in day 17 progenitors ([1]; 2 μM LDN versus 200 nM, Condition 7, iPSC line K, n=5 experiments): higher FoxA2 and Lmx1 expression levels
c1ccc(-c2[nH]ncc2-c2ccnc3ccccc23)nc1 [LY364947] | did not outperform LDN | – | –
CO[C@@]12[C@H](COC(N)=O)C3=C(C(=O)C(C)=C(N)C3=O)N1C[C@@H]1N[C@@H]12 [MMC, mitomycin C] | – | – | final neuron purity (MAP2+/nestin−) [3]: > 90%
